Key:
[1] = tested on: 3β-hydroxysterol synthesis; assay: Test B. In Vivo Cholesterol Biosynthesis Inhibition Test; settings: Rattus norvegicus, po, rats, orally administered, 0.1-200 mg/kg. body weight, read-out: ED50 (50% inhibition of 3β-hydroxysterol synthesis)
Method: Test B. In Vivo Cholesterol Biosynthesis Inhibition Test:
In this test the rats are orally administered the test substance (compound of Formula I) at a dose of 0.1-200 mg/kg. body weight. The obtained ED50 is the dose of the test substance observed or calculated to produce a 50% inhibition of 3β-hydroxysterol synthesis.

[2] = molecular target: T1, 3-hydroxy-3-methylglutaryl coenzyme A (HMG-CoA) reductase (Rattus norvegicus, UniProt P51639); assay: Test A. In Vitro Microsomal Assay of HMG-CoA Reductase Inhibition; type: biochemical; settings: test substance 0.001-2,000 μmolar, read-out: IC50 (50% inhibition of HMG-CoA reductase activity)
T1 construct: from tissue; host or cells: liver microsomes of Sprague-Dawley rats (tissue and species from own knowledge of the cited documents)
T1 sequence (P51639 1-887): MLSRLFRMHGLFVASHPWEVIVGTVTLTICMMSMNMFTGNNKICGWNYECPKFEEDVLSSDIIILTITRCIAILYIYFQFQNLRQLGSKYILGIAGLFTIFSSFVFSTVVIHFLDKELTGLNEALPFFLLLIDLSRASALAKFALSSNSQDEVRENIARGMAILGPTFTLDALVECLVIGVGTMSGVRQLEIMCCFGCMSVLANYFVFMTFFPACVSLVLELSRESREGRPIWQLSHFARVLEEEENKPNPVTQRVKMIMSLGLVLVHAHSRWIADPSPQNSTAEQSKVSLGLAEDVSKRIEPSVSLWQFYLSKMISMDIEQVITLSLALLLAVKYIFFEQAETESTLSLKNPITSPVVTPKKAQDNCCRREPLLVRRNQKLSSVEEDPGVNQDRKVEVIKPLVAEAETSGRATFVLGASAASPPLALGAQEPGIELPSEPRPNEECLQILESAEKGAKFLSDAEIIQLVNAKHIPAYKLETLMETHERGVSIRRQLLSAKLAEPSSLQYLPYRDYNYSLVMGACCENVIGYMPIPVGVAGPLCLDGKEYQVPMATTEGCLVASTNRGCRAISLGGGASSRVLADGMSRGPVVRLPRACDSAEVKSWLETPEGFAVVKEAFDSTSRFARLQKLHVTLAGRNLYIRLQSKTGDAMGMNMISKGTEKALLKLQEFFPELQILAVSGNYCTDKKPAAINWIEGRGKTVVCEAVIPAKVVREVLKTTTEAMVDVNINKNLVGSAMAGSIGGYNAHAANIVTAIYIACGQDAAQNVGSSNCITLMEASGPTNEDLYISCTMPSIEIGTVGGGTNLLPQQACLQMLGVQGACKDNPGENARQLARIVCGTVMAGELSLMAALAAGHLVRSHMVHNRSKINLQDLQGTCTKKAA
Method: Test A. In Vitro Microsomal Assay of HMG-CoA Reductase Inhibition:
This test is carried out precisely as described in column 53 of U.S. Pat. No. 4,613,610 and on page 30 of World (PCT) Published patent application No. 84/02131, both of which are hereby incorporated by reference as if set forth herein in their entirety. The concentration of the test substance (compound of Formula I) in the assay system is 0.001-2,000 μmolar. The obtained IC50 is the concentration of the test substance in the assay system observed or calculated to produce a 50% inhibition of HMG-CoA reductase activity.

| IC50 [2] [nM] | Structure (SMILES) | ED50 [1] [mg/kg] |
| --- | --- | --- |
| – | CC[C@H](C)C(=O)O[C@H]1CCC=C2C=C[C@H](C)[C@H](CC[C@@H]3C[C@@H](O)CC(=O)O3)[C@H]21 [Compactin] | 3.5 |
| 10 | Cc1nn(C)c2nc(C(C)C)c(/C=C/[C@@H](O)C[C@@H](O)CC(=O)O)c(-c3ccc(F)cc3)c12 [Example 2, Sodium (3R,5S)-(E)-3,5-dihydroxy-7-[1',3'-dimethyl-4'-(4"-fluorophenyl)-6'-(1"-methylethyl)-1H-pyrazolo[3,4-b]pyrid-5'-yl]hept-6-enoate] | – |
| – | CC[C@H](C)C(=O)O[C@H]1C[C@@H](C)C=C2C=C[C@H](C)[C@H](CC[C@@H]3C[C@@H](O)CC(=O)O3)[C@H]21 [Mevinolin] | 0.38 |

From patent US4822799A, “Pyrazolopyridine analogs of mevalonolactone and derivatives thereof useful for inhibiting cholesterol biosynthesis in mammals” (Sandoz Pharm. Corp., priority 1988, dated 1989)
